Data taken from US10829520B2, “Beta-hairpin peptidomimetics” (POLYPHOR AG, priority 2015, dated 2020).
Read-outs that look alike come from different tables or passages of the source. Where a SMILES comes first, the peptide text is derived from it. Bridges are numbered along the chain shown (N, C = ends). Roman numbers before positions name the chains, in order. [ ]: non-standard residue; d: D form. Tle = CC(C)(C)[C@H](N)C(=O)O; dDab = NCC[C@@H](N)C(=O)O; Nle = CCCC[C@H](N)C(=O)O; Orn = NCCC[C@H](N)C(=O)O; Dab = NCC[C@H](N)C(=O)O; Dap = NC[C@H](N)C(=O)O; Sar = CNCC(=O)O

Experiments:
Assay type in all cases: cell-based
[1] = system: human red blood cells (hRBC); assay: Hemolysis of human red blood cells
In short: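 Hemolysis was read as supernatant absorbance at 540 nm and expressed as a percentage of Triton X-100 (2.5%) lysis. Washed human red cells (20% v/v) had been exposed to each peptide at 100 μg/mL for 1 h at 37° C.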

Escherichia coli 926415 = system: Escherichia coli 926415
[2] = system: Acinetobacter baumannii DSM 30008
In short: (§1)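 Read-out is the minimal inhibitory concentration in μg/mL, taken as the lowest peptide level without visible growth after 18-20 h at 35° C. Testing followed CLSI broth microdilution in cation-adjusted Mueller-Hinton II broth plus 0.002% Polysorbate 80, with roughly 10^6 CFU/mL.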

[3] = system: Acinetobacter baumannii 872842
[4] = system: Pseudomonas aeruginosa ATCC 27853
In short: as §1

[5] = system: Klebsiella pneumoniae SSI #3010
In short: as §1

[6] = system: Escherichia coli ATCC 25922
In short: as §1

[7] = system: Klebsiella pneumoniae 968733
[8] = red cells of human, 1 h, 100 μg/mL
[9] = clinical isolate, Mueller-Hinton II broth, P-80 0.002% present

| SMILES | Hemolysis at 100 μg/mL [1, 8] [%] | Escherichia coli 926415 MIC (Escherichia coli 926415; 926415) [µg/mL] | Acinetobacter baumannii DSM 30008 MIC ([2]; DSM 30008) [µg/mL] | Acinetobacter baumannii 872842 MIC [3]; 872842 [µg/mL] | Pseudomonas aeruginosa ATCC 27853 MIC ([4]; ATCC 27853) [µg/mL] | Klebsiella pneumoniae SSI #3010 MIC ([5]; SSI #3010) [µg/mL] | Escherichia coli ATCC 25922 MIC ([6]; ATCC 25922) [µg/mL] | Klebsiella pneumoniae 968733 MIC [7]; 968733 [µg/mL] | Hemolysis at 100 μg/mL ([1]; red cells of human, 1 h, 100) [%] | Hemolysis at 100 μg/mL ([1]; 100 μg/mL, 20% hRBC, 1 h at 37° C.) [%] | Escherichia coli 926415 MIC (Escherichia coli 926415; [9]) [µg/mL] | Acinetobacter baumannii DSM 30008 MIC ([2]; Mueller-Hinton II broth) [µg/mL] | Acinetobacter baumannii 872842 MIC [3, 9] [µg/mL] | Pseudomonas aeruginosa ATCC 27853 MIC ([4]; Mueller-Hinton II broth) [µg/mL] | Klebsiella pneumoniae SSI #3010 MIC ([5]; Mueller-Hinton II broth) [µg/mL] | Escherichia coli ATCC 25922 MIC ([6]; Mueller-Hinton II broth) [µg/mL] | Klebsiella pneumoniae 968733 MIC [7, 9] [µg/mL] |
| --- | --- | --- | --- | --- | --- | --- | --- | --- | --- | --- | --- | --- | --- | --- | --- | --- | --- |
| CCCC[C@@H]1NC(=O)[C@@H]2CCCN2C(=O)[C@H]2CCCN2C(=O)[C@H](CO)NC(=O)[C@H](CO)NC(=O)[C@H](C(C)(C)C)NC(=O)[C@@H](NC(=O)[C@@H](N)Cc2c[nH]c3ccccc23)CSSC[C@@H](C(=O)N(C)CC(=O)N[C@@H](CCN)C(=O)N[C@H](C(=O)N[C@@H](CCN)C(=O)N[C@H]2CCNC(=O)[C@H]([C@@H](C)O)NC(=O)[C@H](CCN)NC(=O)[C@H](CCN)NC(=O)[C@H](CC(C)C)NC(=O)[C@@H](CC(C)C)NC(=O)[C@H](CCN)NC2=O)[C@@H](C)O)NC(=O)[C@H](Cc2ccc(O)cc2)NC(=O)[C@H](CN)NC1=O [Ex. 147] (H-WC[Tle]SS[dP]P[Nle][Dap]YC[Sar][Dab]T[Dab][Dab][Dab][dL]L[Dab][Dab]T; disulfide 2-11; lactam 16-C) | <1 | 0.0625 | 0.03125 | 0.0625 | 1 | 0.0625 | 0.0625 | 0.5 |  |  |  |  |  |  |  |  |  |
| CCCC[C@@H]1NC(=O)[C@@H]2CCCN2C(=O)[C@H]2CCCN2C(=O)[C@H](CO)NC(=O)[C@H](CO)NC(=O)[C@H](C(C)(C)C)NC(=O)[C@H](CCN)NC(=O)[C@H](Cc2c[nH]c3ccccc23)NC(=O)[C@@H](N)CSSC[C@@H](C(=O)N[C@@H](C(=O)N[C@H](CCN)C(=O)N[C@H]2CCNC(=O)[C@H]([C@@H](C)O)NC(=O)[C@H](CCN)NC(=O)[C@H](CCN)NC(=O)[C@H](CC(C)C)NC(=O)[C@@H](Cc3ccccc3)NC(=O)[C@H](CCN)NC2=O)[C@H](C)O)NC(=O)[C@H](CCCN)NC(=O)[C@H](CCN)NC(=O)[C@H](Cc2ccc(O)cc2)NC(=O)[C@H](CO)NC1=O [Ex. 204] (H-CW[Dab][Tle]SS[dP]P[Nle]SY[Dab][Orn]C[dT][dDab][Dab][Dab][dF]L[Dab][Dab]T; disulfide 1-14; lactam 17-C) | 3 | 0.125 | 0.5 | 0.25 | 0.5 | 0.25 | 0.25 | 0.5 |  |  |  |  |  |  |  |  |  |
| CCCC[C@@H]1NC(=O)[C@@H]2CCCN2C(=O)[C@H]2CCCN2C(=O)[C@H](CO)NC(=O)[C@H](C)NC(=O)[C@H](C(C)(C)C)NC(=O)[C@H](CCN)NC(=O)[C@H](Cc2c[nH]c3ccccc23)NC(=O)[C@H](CCN)NC(=O)[C@H](CCC(=O)N[C@H](C(=O)N[C@@H](CCN)C(=O)N[C@H]2CCNC(=O)[C@H]([C@@H](C)O)NC(=O)[C@H](CCN)NC(=O)[C@H](CCN)NC(=O)[C@H](CC(C)C)NC(=O)[C@@H](Cc3ccccc3)NC(=O)[C@H](CCN)NC2=O)[C@@H](C)O)NC(=O)[C@H](CCCN)NC(=O)[C@H](CCN)NC(=O)[C@H](Cc2ccc(O)cc2)NC(=O)[C@H](CO)NC1=O [Ex. 6] (I: cyclo([Nle]SY[Dab][Orn]E[Dab]W[Dab][Tle]AS[dP]P) / II: T[Dab][Dab][Dab][dF]L[Dab][Dab]T; amide I:6-II:N; lactam II:3-II:C) |  | 1 | 2 | 2 | 0.5 | 0.5 | 0.25 | 2 | <1 |  |  |  |  |  |  |  |  |
| CCCC[C@@H]1NC(=O)[C@@H]2CCCN2C(=O)[C@H]2CCCN2C(=O)[C@H](CO)NC(=O)[C@H](C)NC(=O)[C@H](C(C)(C)C)NC(=O)[C@@H](NC(=O)[C@H](Cc2c[nH]c3ccccc23)NC(C)=O)CSSC[C@@H](C(=O)N[C@@H](CCN)C(=O)N[C@@H](CCN)C(=O)N[C@H](C(=O)N[C@@H](CCN)C(=O)N[C@H]2CCNC(=O)[C@H]([C@@H](C)O)NC(=O)[C@H](CCN)NC(=O)[C@H](CCN)NC(=O)[C@H](CC(C)C)NC(=O)[C@@H](Cc3ccccc3)NC(=O)[C@H](CCN)NC2=O)[C@@H](C)O)NC(=O)[C@H](Cc2ccc(O)cc2)NC(=O)[C@H](CO)NC1=O [Ex. 27] (Ac-WC[Tle]AS[dP]P[Nle]SYC[Dab][Dab]T[Dab][Dab][Dab][dF]L[Dab][Dab]T; disulfide 2-11; lactam 16-C) | <1 | 0.5 | 0.125 | 0.125 | 0.25 | 0.125 | 0.0625 | 0.5 |  |  |  |  |  |  |  |  |  |
| CC(C)C[C@@H]1NC(=O)[C@@H](CC(C)C)NC(=O)[C@H](CCN)NC(=O)[C@@H](NC(=O)[C@H](CCN)NC(=O)[C@@H](NC(=O)[C@H](CCN)NC(=O)CNC(=O)[C@@H]2CSSC[C@H](NC(=O)[C@@H](N)Cc3c[nH]c4ccccc34)C(=O)N[C@@H](C(C)C)C(=O)N[C@@H](C)C(=O)N[C@@H](CO)C(=O)N3CCC[C@@H]3C(=O)N3CCC[C@H]3C(=O)N[C@@H](CC(C)C)C(=O)N[C@@H](CO)C(=O)N[C@@H](Cc3ccc(O)cc3)C(=O)N2)[C@@H](C)O)CCNC(=O)[C@H]([C@@H](C)O)NC(=O)[C@H](CCN)NC(=O)[C@H](CCN)NC1=O [Ex. 131] (H-WCVAS[dP]PLSYCG[Dab]T[Dab][Dab][Dab][dL]L[Dab][Dab]T; disulfide 2-11; lactam 16-C) | <1 | 0.25 | 0.125 | 0.125 | 0.5 | 0.125 | 0.0625 | 0.25 |  |  |  |  |  |  |  |  |  |
| CC(C)C[C@@H]1NC(=O)[C@@H](CC(C)C)NC(=O)[C@H](CCN)NC(=O)[C@@H](NC(=O)[C@H](CCN)NC(=O)[C@@H](NC(=O)[C@H](CCN)NC(=O)CN(C)C(=O)[C@@H]2CSSC[C@H](NC(=O)[C@@H](N)Cc3c[nH]c4ccccc34)C(=O)N[C@@H](C(C)(C)C)C(=O)N[C@@H](Cc3ccc(O)cc3)C(=O)N[C@@H](CO)C(=O)N3CCC[C@@H]3C(=O)N3CCC[C@H]3C(=O)N[C@@H](CC(C)C)C(=O)N[C@@H](CN)C(=O)N[C@@H](Cc3ccc(O)cc3)C(=O)N2)[C@@H](C)O)CCNC(=O)[C@H]([C@@H](C)O)NC(=O)[C@H](CCN)NC(=O)[C@H](CCN)NC1=O [Ex. 140] (H-WC[Tle]YS[dP]PL[Dap]YC[Sar][Dab]T[Dab][Dab][Dab][dL]L[Dab][Dab]T; disulfide 2-11; lactam 16-C) | <1 | 0.125 | 0.125 | 0.125 | 0.5 | 0.0625 | 0.0625 | 1 |  |  |  |  |  |  |  |  |  |
| CC(=O)N[C@H]1CSSC[C@@H](C(=O)N[C@H](CCN)C(=O)N[C@H]2CCNC(=O)[C@H]([C@@H](C)O)NC(=O)[C@H](CCN)NC(=O)[C@H](CCN)NC(=O)[C@H](CC(C)C)NC(=O)[C@@H](Cc3ccccc3)NC(=O)[C@H](CCN)NC2=O)NC(=O)[C@H](CCCN)NC(=O)[C@H](CC(N)=O)NC(=O)[C@H](Cc2ccc(O)cc2)NC(=O)[C@@H]2CSSC[C@H](NC(=O)[C@H](Cc3ccc(O)cc3)NC(=O)[C@H](CO)NC(=O)[C@H](Cc3c[nH]c4ccccc34)NC1=O)C(=O)N[C@@H](C(C)C)C(=O)N[C@H](CCN)C(=O)N[C@@H](CCCNC(=N)N)C(=O)N[C@@H](CC(C)C)C(=O)N2 [Ex. 211] (Ac-CWSYCV[dDab]RLCYN[Orn]C[dDab][Dab][Dab][dF]L[Dab][Dab]T; disulfide 1-14, 5-10; lactam 16-C) |  |  |  |  |  |  |  |  |  | 2 | 2 | 1 | 2 | 2 | 1 | 0.5 | 8 |
| CCCC[C@@H]1NC(=O)[C@@H]2CCCN2C(=O)[C@H]2CCCN2C(=O)[C@H](CO)NC(=O)[C@H](CO)NC(=O)[C@H](C(C)(C)C)NC(=O)[C@H](CCN)NC(=O)[C@H](Cc2c[nH]c3ccccc23)NC(=O)[C@@H](N)CSSC[C@@H](C(=O)N[C@@H](Cc2ccc(O)cc2)C(=O)N[C@H](CCN)C(=O)N[C@H]2CCNC(=O)[C@H]([C@@H](C)O)NC(=O)[C@H](CCN)NC(=O)[C@H](CCN)NC(=O)[C@H](CC(C)C)NC(=O)[C@@H](Cc3ccccc3)NC(=O)[C@H](CCN)NC2=O)NC(=O)[C@H](CCCN)NC(=O)[C@H](CCN)NC(=O)[C@H](Cc2ccc(O)cc2)NC(=O)[C@H](CO)NC1=O [Ex. 201] (H-CW[Dab][Tle]SS[dP]P[Nle]SY[Dab][Orn]CY[dDab][Dab][Dab][dF]L[Dab][Dab]T; disulfide 1-14; lactam 17-C) | <1 | 0.5 | 1 | 0.5 | 1 | 1 | 0.25 | 8 |  |  |  |  |  |  |  |  |  |
